{"source": "the supplement of paper PMC11208160", "data": [{"test": "recombinant UMI read abundance after kanamycin selection (control-corrected) (log10(CPM+1)); higher = more efficient recombination; extreme values may be limits of the assay; sequences stand for … in AGTGCAGAGAAAATCGGCCAGTTTTCTCTGCCTGCAGTCCGCATGCCGTGGGACCCCTTGGGTTCTAACCTGTTGCCTAGATTTATGCAGCGGACTGCCTTTCTCCCAAAGTGATAAACCGG…AGGTTGGTTTCACT; site = the 11-nt donor", "summary_of_the_method": "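After plating on IPTG (0.07 mM) plus kanamycin, or unselected, in two replicates, recombinant UMIs were PCR-amplified across the donor–target junction and sequenced. The cells were Escherichia coli co-electroporated with a UMI-tagged donor and donor-binding-loop pair library and a target plasmid with a fixed target and T7-inducible IS621 bridge recombinase. Values are log10(CPM+1), with CPM averaged over replicates and scaled by control-derived factors.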", "values": [{"sequence": "GGTACGTCATGGACCGGTTTTCCCGGTAATCCGTATTTGTG (site GGTACGTCTGA)", "recombinant UMI read abundance (log10)": 0}, {"sequence": "GGTACGTCATGGACCGGTTTTCCCGGTAATCCGTATTTGTG (site GGTACGTCTTA)", "recombinant UMI read abundance (log10)": 0}, {"sequence": "GGTACGTCATGGACCGGTTTTCCCGGTAATCCGTATTTGTT (site AGTACGTCTAA)", "recombinant UMI read abundance (log10)": 0.0112}, {"sequence": "GGTACGTCATGGACCGGTTTTCCCGGTAATCCGTATTTGTT (site CGTACGTCTAA)", "recombinant UMI read abundance (log10)": 0}, {"sequence": "GGTACGTCATGGACCGGTTTTCCCGGTAATCCGTATTTGTT (site GATACGTCTAA)", "recombinant UMI read abundance (log10)": 0.00543}, {"sequence": "GGTACGTCATGGACCGGTTTTCCCGGTAATCCGTATTTGTT (site GCTACGTCTAA)", "recombinant UMI read abundance (log10)": 0.0161}, {"sequence": "GGTACGTCATGGACCGGTTTTCCCGGTAATCCGTATTTGTT (site GGAACGTCTAA)", "recombinant UMI read abundance (log10)": 0.0323}, {"sequence": "GGTACGTCATGGACCGGTTTTCCCGGTAATCCGTATTTGTT (site GGCACGTCTAA)", "recombinant UMI read abundance (log10)": 0.0185}, {"sequence": "GGTACGTCATGGACCGGTTTTCCCGGTAATCCGTATTTGTT (site GGGACGTCTAA)", "recombinant UMI read abundance (log10)": 0.0133}, {"sequence": "GGTACGTCATGGACCGGTTTTCCCGGTAATCCGTATTTGTT (site GGTAAGTCTAA)", "recombinant UMI read abundance (log10)": 0}, {"sequence": "GGTACGTCATGGACCGGTTTTCCCGGTAATCCGTATTTGTT (site GGTACATCTAA)", "recombinant UMI read abundance (log10)": 0.535}, {"sequence": "GGTACGTCATGGACCGGTTTTCCCGGTAATCCGTATTTGTT (site GGTACCTCTAA)", "recombinant UMI read abundance (log10)": 0.0198}, {"sequence": "GGTACGTCATGGACCGGTTTTCCCGGTAATCCGTATTTGTT (site GGTACGACTAA)", "recombinant UMI read abundance (log10)": 0.0066}, {"sequence": "GGTACGTCATGGACCGGTTTTCCCGGTAATCCGTATTTGTT (site GGTACGCCTAA)", "recombinant UMI read abundance (log10)": 0.0208}, {"sequence": "GGTACGTCATGGACCGGTTTTCCCGGTAATCCGTATTTGTT (site GGTACGGCTAA)", "recombinant UMI read abundance (log10)": 0.0154}, {"sequence": "GGTACGTCATGGACCGGTTTTCCCGGTAATCCGTATTTGTT (site GGTACGTCTAA)", "recombinant UMI read abundance (log10)": 0.31}, {"sequence": "GGTACGTCATGGACCGGTTTTCCCGGTAATCCGTATTTGTT (site GGTACGTCTAC)", "recombinant UMI read abundance (log10)": 0}, {"sequence": "GGTACGTCATGGACCGGTTTTCCCGGTAATCCGTATTTGTT (site GGTACGTCTAG)", "recombinant UMI read abundance (log10)": 0}, {"sequence": "GGTACGTCATGGACCGGTTTTCCCGGTAATCCGTATTTGTT (site GGTACGTCTAT)", "recombinant UMI read abundance (log10)": 0}, {"sequence": "GGTACGTCATGGACCGGTTTTCCCGGTAATCCGTATTTGTT (site GGTACGTCTCA)", "recombinant UMI read abundance (log10)": 0.0191}, {"sequence": "GGTACGTCATGGACCGGTTTTCCCGGTAATCCGTATTTGTT (site GGTACGTCTGA)", "recombinant UMI read abundance (log10)": 0}, {"sequence": "GGTACGTCATGGACCGGTTTTCCCGGTAATCCGTATTTGTT (site GGTACGTCTTA)", "recombinant UMI read abundance (log10)": 0.0065}, {"sequence": "GGTACGTCATGGACCGGTTTTCCCGGTAATCCGTATTTGTT (site GGTACTTCTAA)", "recombinant UMI read abundance (log10)": 0}, {"sequence": "GGTACGTCATGGACCGGTTTTCCCGGTAATCCGTATTTGTT (site GGTAGGTCTAA)", "recombinant UMI read abundance (log10)": 0.00929}, {"sequence": "GGTACGTCATGGACCGGTTTTCCCGGTAATCCGTATTTGTT (site GGTATGTCTAA)", "recombinant UMI read abundance (log10)": 0.00457}, {"sequence": "GGTACGTCATGGACCGGTTTTCCCGGTAATCCGTATTTGTT (site GGTCCGTCTAA)", "recombinant UMI read abundance (log10)": 0.0113}, {"sequence": "GGTACGTCATGGACCGGTTTTCCCGGTAATCCGTATTTGTT (site GGTGCGTCTAA)", "recombinant UMI read abundance (log10)": 0.00982}, {"sequence": "GGTACGTCATGGACCGGTTTTCCCGGTAATCCGTATTTGTT (site GGTTCGTCTAA)", "recombinant UMI read abundance (log10)": 0}, {"sequence": "GGTACGTCATGGACCGGTTTTCCCGGTAATCCGTATTTGTT (site GTTACGTCTAA)", "recombinant UMI read abundance (log10)": 0.0263}, {"sequence": "GGTACGTCATGGACCGGTTTTCCCGGTAATCCGTATTTGTT (site TGTACGTCTAA)", "recombinant UMI read abundance (log10)": 0.0329}, {"sequence": "GGTACTTCATGGACCGGTTTTCCCGGTAATCCGTATTTGAT (site GGTACTTCTAT)", "recombinant UMI read abundance (log10)": 0.4}, {"sequence": "GGTAGAACATGGACCGGTTTTCCCGGTAATCCGTATTTGTA (site GGTAGAACTTA)", "recombinant UMI read abundance (log10)": 1.39}]}]}
